# Laboratory results: paper PMC5218480 (PLoS ONE, 2017)
# Tested on: MV-4-11 cells
# Test: Gene expression microarray analysis (Affymetrix PrimeView) and GSEA
# Type: cell-based, human
# Parameters: RFU PODN (11730768_x_at) / Fold change /veh PODN (11730768_x_at) / RFU LINC00158 (11744669_a_at) / Fold change /veh LINC00158 (11744669_a_at) / RFU DUSP10 (11751237_a_at) / Fold change /veh DUSP10 (11751237_a_at) / RFU ID3 (11757404_x_at) / Fold change /veh ID3 (11757404_x_at) / RFU PLEKHG5 (11737974_s_at) / Fold change /veh PLEKHG5 (11737974_s_at) / RFU LRRC4B (11730491_at) / Fold change /veh LRRC4B (11730491_at) / RFU GIMAP4 (11747438_a_at) / Fold change /veh GIMAP4 (11747438_a_at) / RFU KRT8 (11758183_x_at) / Fold change /veh KRT8 (11758183_x_at) / RFU CNN1 (11734310_a_at) / Fold change /veh CNN1 (11734310_a_at) / RFU VPS37D (11726825_at) / Fold change /veh VPS37D (11726825_at) / RFU C10orf10 (11716522_x_at) / Fold change /veh C10orf10 (11716522_x_at) / RFU KIR2DL2 /// KIR2DL4 /// KIR2DL5A /// KIR2DL5B /// KIR2DS1 /// KIR2DS2 /// KIR2DS3 /// KIR2DS4 /// KIR3DL3 /// KIR3DL3 /// KIR3DS1 (11738374_at) / Fold change /veh KIR2DL2 /// KIR2DL4 /// KIR2DL5A /// KIR2DL5B /// KIR2DS1 /// KIR2DS2 /// KIR2DS3 /// KIR2DS4 /// KIR3DL3 /// KIR3DL3 /// KIR3DS1 (11738374_at) / RFU C1QL1 (11718748_at) / Fold change /veh C1QL1 (11718748_at) / RFU TMPRSS4 (11747572_a_at) / Fold change /veh TMPRSS4 (11747572_a_at) / RFU HAMP (11756126_x_at) / Fold change /veh HAMP (11756126_x_at) / RFU RNFT2 (11725882_a_at) / Fold change /veh RNFT2 (11725882_a_at) / RFU NR4A2 (11747474_a_at) / Fold change /veh NR4A2 (11747474_a_at) / RFU ABCC12 (11746883_a_at) / Fold change /veh ABCC12 (11746883_a_at) / RFU TMEM136 (11760407_x_at) / Fold change /veh TMEM136 (11760407_x_at) / RFU CLDN22 /// WWC2 (11732394_at) / Fold change /veh CLDN22 /// WWC2 (11732394_at) / RFU HLA-DPB1 (11760878_x_at) / Fold change /veh HLA-DPB1 (11760878_x_at) / RFU SPINT1 (11716480_a_at) / Fold change /veh SPINT1 (11716480_a_at) / RFU GAP43 (11754022_s_at) / Fold change /veh GAP43 (11754022_s_at) / RFU A4GNT (11735810_at) / Fold change /veh A4GNT (11735810_at) / RFU PRB3 (11715151_x_at) / Fold change /veh PRB3 (11715151_x_at) / RFU TUBB4B (11761932_at) / Fold change /veh TUBB4B (11761932_at) / RFU CAPN14 (11732068_a_at) / Fold change /veh CAPN14 (11732068_a_at) / RFU TMCC2 (11721928_a_at) / Fold change /veh TMCC2 (11721928_a_at) / RFU IRGQ (11745062_a_at) / Fold change /veh IRGQ (11745062_a_at) / RFU FAM174B (11720279_a_at) / Fold change /veh FAM174B (11720279_a_at) / RFU TMPRSS4 (11748680_a_at) / Fold change /veh TMPRSS4 (11748680_a_at) / RFU FAM212B (11763350_a_at) / Fold change /veh FAM212B (11763350_a_at) / RFU PLEKHG5 (11743358_a_at) / Fold change /veh PLEKHG5 (11743358_a_at) / RFU ZSCAN30 (11745921_a_at) / Fold change /veh ZSCAN30 (11745921_a_at) / RFU CMKLR1 (11741424_a_at) / Fold change /veh CMKLR1 (11741424_a_at) / RFU LOC101060620 /// MAPK8IP1 (11723275_at) / Fold change /veh LOC101060620 /// MAPK8IP1 (11723275_at) / RFU SPTSSB (11747773_x_at) / Fold change /veh SPTSSB (11747773_x_at) / RFU PRSS12 (11739890_at) / Fold change /veh PRSS12 (11739890_at) / RFU BIN1 (11741810_x_at) / Fold change /veh BIN1 (11741810_x_at) / RFU WNT11 (11732464_a_at) / Fold change /veh WNT11 (11732464_a_at) / RFU C10orf10 (11716521_a_at) / Fold change /veh C10orf10 (11716521_a_at) / RFU C5orf56 (11738089_at) / Fold change /veh C5orf56 (11738089_at) / RFU CYB561 (11721691_x_at) / Fold change /veh CYB561 (11721691_x_at) / RFU ANKRD19P (11752326_a_at) / Fold change /veh ANKRD19P (11752326_a_at) / RFU OR2T12 /// OR2T33 /// OR2T8 (11738714_s_at) / Fold change /veh OR2T12 /// OR2T33 /// OR2T8 (11738714_s_at) / RFU VCAN (11748164_a_at) / Fold change /veh VCAN (11748164_a_at) / RFU JSRP1 (11732532_at) / Fold change /veh JSRP1 (11732532_at) / RFU KRTAP10-11 (11738290_x_at) / Fold change /veh KRTAP10-11 (11738290_x_at) / RFU MYO3A (11730013_a_at) / Fold change /veh MYO3A (11730013_a_at) / RFU EBF3 (11725865_a_at) / Fold change /veh EBF3 (11725865_a_at) / RFU CAMK2N1 (11719241_x_at) / Fold change /veh CAMK2N1 (11719241_x_at) / RFU C5orf56 (11738088_a_at) / Fold change /veh C5orf56 (11738088_a_at) / RFU OLFML3 (11715873_a_at) / Fold change /veh OLFML3 (11715873_a_at) / RFU LOC100653217 /// NTM (11731650_a_at) / Fold change /veh LOC100653217 /// NTM (11731650_a_at) / RFU MAPK11 (11762145_a_at) / Fold change /veh MAPK11 (11762145_a_at) / RFU FIZ1 (11724087_x_at) / Fold change /veh FIZ1 (11724087_x_at) / RFU OASL (11726364_x_at) / Fold change /veh OASL (11726364_x_at) / RFU SOX15 (11748057_x_at) / Fold change /veh SOX15 (11748057_x_at) / RFU CD79A (11719716_a_at) / Fold change /veh CD79A (11719716_a_at) / RFU HIST1H1D (11736915_at) / Fold change /veh HIST1H1D (11736915_at) / RFU CASKIN2 (11723855_a_at) / Fold change /veh CASKIN2 (11723855_a_at) / RFU LOC730098 (11760151_x_at) / Fold change /veh LOC730098 (11760151_x_at) / RFU OR4N2 (11742367_at) / Fold change /veh OR4N2 (11742367_at) / RFU PRRT2 (11749266_a_at) / Fold change /veh PRRT2 (11749266_a_at) / RFU SNX32 (11753110_a_at) / Fold change /veh SNX32 (11753110_a_at) / RFU CDHR5 (11726645_a_at) / Fold change /veh CDHR5 (11726645_a_at) / RFU RCAN1 (11760418_a_at) / Fold change /veh RCAN1 (11760418_a_at) / RFU FAM167A (11723789_a_at) / Fold change /veh FAM167A (11723789_a_at) / RFU FAM26E (11764081_at) / Fold change /veh FAM26E (11764081_at) / RFU ISYNA1 (11749810_s_at) / Fold change /veh ISYNA1 (11749810_s_at) / RFU ACY1 (11761880_at) / Fold change /veh ACY1 (11761880_at) / RFU 11764098_at / Fold change /veh 11764098_at / RFU SAMD14 (11745864_x_at) / Fold change /veh SAMD14 (11745864_x_at) / RFU NPB (11741838_a_at) / Fold change /veh NPB (11741838_a_at) / RFU TMPRSS6 (11731388_a_at) / Fold change /veh TMPRSS6 (11731388_a_at) / RFU KRTAP10-2 (11738614_at) / Fold change /veh KRTAP10-2 (11738614_at) / RFU ARHGAP8 /// PRR5-ARHGAP8 (11727945_x_at) / Fold change /veh ARHGAP8 /// PRR5-ARHGAP8 (11727945_x_at) / RFU KRTAP5-7 /// NADSYN1 (11734609_at) / Fold change /veh KRTAP5-7 /// NADSYN1 (11734609_at) / RFU RASL12 (11751679_a_at) / Fold change /veh RASL12 (11751679_a_at) / RFU CDKN2B (11736163_a_at) / Fold change /veh CDKN2B (11736163_a_at) / RFU PRF1 (11729649_at) / Fold change /veh PRF1 (11729649_at) / RFU, ZNF638 /// ZNF638-IT1 / Fold change vs veh, ZNF638 /// ZNF638-IT1 / RFU, PANK3 / Fold change vs veh, PANK3 / RFU, SH3YL1 / Fold change vs veh, SH3YL1 / RFU, ZEB2 / Fold change vs veh, ZEB2 / RFU, NRIP1 / Fold change vs veh, NRIP1 / RFU, PTTG1IP / Fold change vs veh, PTTG1IP / RFU, CAPN2 / Fold change vs veh, CAPN2 / RFU, MED14 / Fold change vs veh, MED14 / RFU, SNORA58 / Fold change vs veh, SNORA58 / RFU, C1orf63 / Fold change vs veh, C1orf63 / RFU, LRRFIP1 / Fold change vs veh, LRRFIP1 / RFU, NDUFAF7 / Fold change vs veh, NDUFAF7 / RFU, SLC12A2 / Fold change vs veh, SLC12A2 / RFU, IBTK / Fold change vs veh, IBTK / RFU, ESF1 / Fold change vs veh, ESF1 / Fold change vs veh, TMEM50B / RFU, TAOK1 / Fold change vs veh, TAOK1 / RFU, ACBD3 / Fold change vs veh, ACBD3 / RFU, TMA16 / Fold change vs veh, TMA16 / RFU, RWDD3 / Fold change vs veh, RWDD3 / RFU, BCAT1 / Fold change vs veh, BCAT1 / RFU, EDEM3 / Fold change vs veh, EDEM3 / RFU, TMEM33 / Fold change vs veh, TMEM33 / RFU, WDR75 / Fold change vs veh, WDR75 / RFU, AHCTF1 / Fold change vs veh, AHCTF1 / RFU, TFRC / Fold change vs veh, TFRC / RFU, ZDHHC17 / Fold change vs veh, ZDHHC17 / RFU, NOM1 / Fold change vs veh, NOM1 / RFU, ARL8B / Fold change vs veh, ARL8B / RFU, ZBTB11 / Fold change vs veh, ZBTB11 / RFU, TAMM41 / Fold change vs veh, TAMM41 / RFU, KIAA1704 /// LOC100996395 / Fold change vs veh, KIAA1704 /// LOC100996395 / RFU, ING1 / Fold change vs veh, ING1 / RFU, TRMT61B / Fold change vs veh, TRMT61B / RFU, FUBP3 / Fold change vs veh, FUBP3 / RFU, TP53 / Fold change vs veh, TP53 / RFU, TNKS2 / Fold change vs veh, TNKS2 / RFU, ZFP14 / Fold change vs veh, ZFP14 / RFU, ACTR2 / Fold change vs veh, ACTR2 / RFU, PPP3R1 / Fold change vs veh, PPP3R1 / RFU, PIK3R1 / Fold change vs veh, PIK3R1 / RFU, HNRNPA1 / Fold change vs veh, HNRNPA1 / RFU, RNF170 / Fold change vs veh, RNF170 / RFU, ZNF28 / Fold change vs veh, ZNF28 / RFU, RNGTT / Fold change vs veh, RNGTT / RFU, OGT / Fold change vs veh, OGT / RFU, BRD1 / Fold change vs veh, BRD1 / RFU, MARS / Fold change vs veh, MARS / RFU, ZNF655 / Fold change vs veh, ZNF655 / RFU, FAHD1 / Fold change vs veh, FAHD1 / RFU, BDP1 / Fold change vs veh, BDP1 / RFU, LRRCC1 / Fold change vs veh, LRRCC1 / RFU, ARID1A / Fold change vs veh, ARID1A / RFU, ZNF146 / Fold change vs veh, ZNF146 / RFU, ZNF330 / Fold change vs veh, ZNF330 / RFU, GPN3 / Fold change vs veh, GPN3 / RFU, C9orf123 / Fold change vs veh, C9orf123 / RFU, N4BP2L2 / Fold change vs veh, N4BP2L2 / RFU, ARFIP1 / Fold change vs veh, ARFIP1 / RFU, FAM179B / Fold change vs veh, FAM179B / RFU, BCL10 / Fold change vs veh, BCL10 / RFU, UHRF1BP1L / Fold change vs veh, UHRF1BP1L / RFU, BET1 / Fold change vs veh, BET1 / RFU, CNOT2 / Fold change vs veh, CNOT2 / RFU, ZNF268 / Fold change vs veh, ZNF268 / Fold change vs veh, ZNF507 / RFU, DGCR2 / Fold change vs veh, DGCR2 / RFU, WDSUB1 / Fold change vs veh, WDSUB1 / Fold change vs veh, HSP90B1 /// MIR3652 / RFU, ADSS / Fold change vs veh, ADSS / RFU, GK / Fold change vs veh, GK / RFU, ZNF148 / Fold change vs veh, ZNF148 / RFU, TAF9 / Fold change vs veh, TAF9 / RFU, SLC1A5 / Fold change vs veh, SLC1A5 / RFU, SLMO2 / Fold change vs veh, SLMO2 / RFU, ABCC4 / Fold change vs veh, ABCC4 / RFU, LOC101060439 /// RAP1B / Fold change vs veh, LOC101060439 /// RAP1B / RFU, RFX7 / Fold change vs veh, RFX7 / RFU, GTPBP10 / Fold change vs veh, GTPBP10 / RFU, CNEP1R1 / Fold change vs veh, CNEP1R1 / RFU, BIVM-ERCC5 /// ERCC5 / Fold change vs veh, BIVM-ERCC5 /// ERCC5 / RFU, ILF3 / Fold change vs veh, ILF3 / RFU 11762660_at / Fold change /veh 11762660_at / RFU VCAN (11757783_s_at) / Fold change /veh VCAN (11757783_s_at) / RFU DDX43 (11728927_at) / Fold change /veh DDX43 (11728927_at) / RFU KRT8 (11758188_x_at) / Fold change /veh KRT8 (11758188_x_at) / RFU NKD1 (11759106_at) / Fold change /veh NKD1 (11759106_at) / RFU SRD5A1 (11742802_a_at) / Fold change /veh SRD5A1 (11742802_a_at) / RFU TPSAB1 /// TPSB2 (11721975_s_at) / Fold change /veh TPSAB1 /// TPSB2 (11721975_s_at) / RFU GSTM3 (11746129_a_at) / Fold change /veh GSTM3 (11746129_a_at) / RFU IL23R (11737362_x_at) / Fold change /veh IL23R (11737362_x_at) / RFU TMEM51 (11727254_a_at) / Fold change /veh TMEM51 (11727254_a_at) / RFU PIWIL2 (11732686_x_at) / Fold change /veh PIWIL2 (11732686_x_at) / RFU ORM1 (11744905_x_at) / Fold change /veh ORM1 (11744905_x_at) / RFU CCDC152 (11743942_at) / Fold change /veh CCDC152 (11743942_at) / RFU ECM1 (11717891_a_at) / Fold change /veh ECM1 (11717891_a_at) / RFU IL23R (11748794_a_at) / Fold change /veh IL23R (11748794_a_at) / RFU TNFAIP8L3 (11732012_x_at) / Fold change /veh TNFAIP8L3 (11732012_x_at) / RFU MBOAT4 (11741988_at) / Fold change /veh MBOAT4 (11741988_at) / RFU 11764193_at / Fold change /veh 11764193_at / RFU TMEM53 (11763286_at) / Fold change /veh TMEM53 (11763286_at) / RFU MAGEB2 (11727129_at) / Fold change /veh MAGEB2 (11727129_at) / RFU TMEM200A (11744735_a_at) / Fold change /veh TMEM200A (11744735_a_at) / RFU CCDC152 (11751479_a_at) / Fold change /veh CCDC152 (11751479_a_at) / RFU FAM211A (11726209_a_at) / Fold change /veh FAM211A (11726209_a_at) / RFU RGS16 (11746705_a_at) / Fold change /veh RGS16 (11746705_a_at) / RFU VCAN (11755009_s_at) / Fold change /veh VCAN (11755009_s_at) / RFU RHOB (11743442_s_at) / Fold change /veh RHOB (11743442_s_at) / RFU RGS16 (11720943_a_at) / Fold change /veh RGS16 (11720943_a_at) / RFU RGS16 (11720944_at) / Fold change /veh RGS16 (11720944_at) / RFU, VPS4B / Fold change vs veh, VPS4B / RFU, CREB1 / Fold change vs veh, CREB1 / RFU, DNAJC13 / Fold change vs veh, DNAJC13 / RFU, GNAQ / Fold change vs veh, GNAQ / RFU, CDK5R1 / Fold change vs veh, CDK5R1 / RFU, ZRANB3 / Fold change vs veh, ZRANB3 / RFU, CUL4A / Fold change vs veh, CUL4A / RFU, CCNY / Fold change vs veh, CCNY / RFU, UFL1 / Fold change vs veh, UFL1 / RFU, COG3 / Fold change vs veh, COG3 / RFU, DIAPH2 / Fold change vs veh, DIAPH2 / RFU, SKA2 / Fold change vs veh, SKA2 / RFU, AFF3 / Fold change vs veh, AFF3 / RFU, LMF1 / Fold change vs veh, LMF1 / RFU, IPO11 / Fold change vs veh, IPO11 / RFU, DFFB / Fold change vs veh, DFFB / RFU, FOXP1 / Fold change vs veh, FOXP1 / RFU, CARD8 / Fold change vs veh, CARD8 / RFU, STRN3 / Fold change vs veh, STRN3 / RFU, ADK / Fold change vs veh, ADK / RFU, RASSF2 / Fold change vs veh, RASSF2 / RFU, WIPF1 / Fold change vs veh, WIPF1 / RFU, LARP1B / Fold change vs veh, LARP1B / RFU, RASA1 / Fold change vs veh, RASA1 / RFU, RB1 / Fold change vs veh, RB1 / RFU, PPFIA1 / Fold change vs veh, PPFIA1 / RFU, MAT2A / Fold change vs veh, MAT2A / RFU, CCT5 / Fold change vs veh, CCT5 / RFU, WDR92 / Fold change vs veh, WDR92 / RFU, CUX1 / Fold change vs veh, CUX1 / RFU, TTC7A / Fold change vs veh, TTC7A / RFU, TMEM135 / Fold change vs veh, TMEM135 / RFU, DEPTOR / Fold change vs veh, DEPTOR / RFU, CPM / Fold change vs veh, CPM / RFU, DNAJB6 / Fold change vs veh, DNAJB6 / RFU, CACNA2D3 / Fold change vs veh, CACNA2D3 / RFU, DTX4 / Fold change vs veh, DTX4 / RFU, TFCP2 / Fold change vs veh, TFCP2 / RFU, GMCL1 /// GMCL1P1 / Fold change vs veh, GMCL1 /// GMCL1P1 / RFU, AEBP2 / Fold change vs veh, AEBP2 / RFU, SNHG1 /// SNORD22 /// SNORD25 /// SNORD26 /// SNORD27 /// SNORD28 /// SNORD29 /// SNORD31 / Fold change vs veh, SNHG1 /// SNORD22 /// SNORD25 /// SNORD26 /// SNORD27 /// SNORD28 /// SNORD29 /// SNORD31 / Fold change (Aza/veh), C12orf56 (ProbeSet 11735607_a_at) / Fold change (ACY-1035/veh), C12orf56 (ProbeSet 11735607_a_at) / Fold change (Aza/veh), FGFR1OP (ProbeSet 11751329_s_at) / Fold change (ACY-1035/veh), FGFR1OP (ProbeSet 11751329_s_at) / Fold change (Aza/veh), VPS36 (ProbeSet 11739960_a_at) / Fold change (ACY-1035/veh), VPS36 (ProbeSet 11739960_a_at) / RFU SYPL1 (11715823_x_at) / Fold change /veh SYPL1 (11715823_x_at) / RFU IGFBP7 (11715501_s_at) / Fold change /veh IGFBP7 (11715501_s_at) / RFU REEP3 (11722064_at) / Fold change /veh REEP3 (11722064_at) / RFU IGLL1 (11728026_x_at) / Fold change /veh IGLL1 (11728026_x_at): dose or concentration left out as unconfirmed
# Settings: MV-4-11 cells, 48 hours
smiles,measurement,value
Nc1ncn([C@@H]2O[C@H](CO)[C@@H](O)[C@H]2O)c(=O)n1 [azacitidine],Fold change /veh GAP43 (11754022_s_at),0.84
